Results taken from patent US20260138961A1, “MODULATORS OF MITOCHONDRIAL DNA REPLICATION” (Pretzel Therapeutics, Inc., priority 2022, published 2026).

Each molecule was assayed against T1, POLγA:A467T (Homo sapiens, UniProt P54098, A467T) (assay: DNA polymerization assay, POLγA:A467T mutant). Settings: A467T AC50, stimulation of polymerase activity, primed M13mp18 ssDNA, 37° C. 2 hours.
T1 sequence (P54098 1-1239 A467T): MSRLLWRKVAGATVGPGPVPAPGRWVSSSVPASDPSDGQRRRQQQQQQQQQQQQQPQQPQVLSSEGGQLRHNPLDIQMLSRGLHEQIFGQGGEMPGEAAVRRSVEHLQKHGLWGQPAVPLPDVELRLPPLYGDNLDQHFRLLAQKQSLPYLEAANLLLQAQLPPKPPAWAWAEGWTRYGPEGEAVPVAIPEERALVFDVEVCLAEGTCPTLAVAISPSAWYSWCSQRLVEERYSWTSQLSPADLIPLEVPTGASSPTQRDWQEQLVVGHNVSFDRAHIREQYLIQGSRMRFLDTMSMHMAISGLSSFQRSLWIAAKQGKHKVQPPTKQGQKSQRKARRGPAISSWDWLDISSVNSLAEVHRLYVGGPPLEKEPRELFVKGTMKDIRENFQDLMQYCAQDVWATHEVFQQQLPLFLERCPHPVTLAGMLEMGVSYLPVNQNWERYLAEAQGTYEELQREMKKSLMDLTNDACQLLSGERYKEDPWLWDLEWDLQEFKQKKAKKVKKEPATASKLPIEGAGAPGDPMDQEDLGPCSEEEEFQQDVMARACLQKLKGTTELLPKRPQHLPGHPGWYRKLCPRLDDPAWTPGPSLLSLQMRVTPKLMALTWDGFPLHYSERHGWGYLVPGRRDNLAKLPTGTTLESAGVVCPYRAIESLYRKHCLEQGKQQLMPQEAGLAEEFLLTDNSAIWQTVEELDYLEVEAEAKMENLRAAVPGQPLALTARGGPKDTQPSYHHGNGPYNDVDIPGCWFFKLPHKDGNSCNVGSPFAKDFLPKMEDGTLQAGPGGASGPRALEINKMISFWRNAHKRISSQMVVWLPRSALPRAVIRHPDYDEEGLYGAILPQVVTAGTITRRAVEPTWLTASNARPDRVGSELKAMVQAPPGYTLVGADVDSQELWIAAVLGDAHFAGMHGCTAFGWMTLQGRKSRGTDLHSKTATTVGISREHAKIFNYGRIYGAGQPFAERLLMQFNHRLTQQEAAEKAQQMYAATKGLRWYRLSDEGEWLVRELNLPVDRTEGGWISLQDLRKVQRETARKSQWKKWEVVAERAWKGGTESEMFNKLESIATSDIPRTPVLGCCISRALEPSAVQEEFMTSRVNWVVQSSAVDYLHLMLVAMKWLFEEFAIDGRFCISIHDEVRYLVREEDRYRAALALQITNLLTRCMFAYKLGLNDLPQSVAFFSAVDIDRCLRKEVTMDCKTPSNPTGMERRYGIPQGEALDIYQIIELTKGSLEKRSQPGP
T1 sequence (Q9UHN1 1-485 partner): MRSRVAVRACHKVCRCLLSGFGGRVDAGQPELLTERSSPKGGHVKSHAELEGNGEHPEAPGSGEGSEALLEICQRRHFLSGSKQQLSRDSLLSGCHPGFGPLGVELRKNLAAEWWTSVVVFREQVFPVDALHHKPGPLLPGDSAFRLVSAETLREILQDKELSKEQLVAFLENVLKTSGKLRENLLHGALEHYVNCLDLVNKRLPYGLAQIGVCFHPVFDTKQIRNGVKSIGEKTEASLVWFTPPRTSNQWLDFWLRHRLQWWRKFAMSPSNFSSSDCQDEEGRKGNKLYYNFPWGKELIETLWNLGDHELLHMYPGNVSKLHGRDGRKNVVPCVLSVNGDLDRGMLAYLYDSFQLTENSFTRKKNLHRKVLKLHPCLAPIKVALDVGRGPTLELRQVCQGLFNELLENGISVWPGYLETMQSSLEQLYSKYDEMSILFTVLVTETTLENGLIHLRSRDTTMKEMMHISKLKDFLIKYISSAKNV
Format: biochemical
`Cc1cc(S(=O)(=O)Nc2noc(-c3ccccc3)n2)c(C)cc1Cl` [Example 142, 4-chloro-2,5-dimethyl-N-(5-phenyl-1,2,4-oxadiazol-3-yl)benzenesulfonamide] was tested, and the AC50 was > 100 µM.

Same assay, conditions: stimulation of polymerase activity, primed M13mp18 ssDNA, 37° C. 2 hours; read-out: A467T AC50
For `O=S(=O)(Nc1csc(-c2ccccc2)n1)c1ccc(C(F)(F)F)cc1F` [Example 141, 2-fluoro-N-(2-phenylthiazol-4-yl)-4-(trifluoromethyl)benzenesulfonamide], the AC50 was > 100 µM.
In the case of `Cc1cc(S(=O)(=O)Nc2nc(-c3ccccc3)no2)c(C)cc1Cl` [Example 143, 4-chloro-2,5-dimethyl-N-(3-phenyl-1,2,4-oxadiazol-5-yl)benzenesulfonamide], the AC50 is reported as > 100 µM.
For `Cc1cc(S(=O)(=O)Nc2cccc(C(=O)N3CCC[C@H]3CO)c2)c(C)cc1Cl` [Example 145, (S)-4-chloro-N-(3-(2-(hydroxymethyl)pyrrolidine-1-carbonyl)phenyl)-2,5-dimethylbenzenesulfonamide], the AC50 was > 100 µM.
With `Cc1cc(S(=O)(=O)Nc2csc(-c3ccccc3)n2)c(F)cc1Cl` [Example 146, 4-chloro-2-fluoro-5-methyl-N-(2-phenylthiazol-4-yl)benzenesulfonamide] the AC50 was > 100 µM.
`O=S(=O)(Nc1csc(-c2ccccc2)n1)c1ccccc1` [Example 147, N-(2-phenylthiazol-4-yl)benzenesulfonamide] was tested, and the AC50 was > 100 µM.
For `Cc1cc(S(=O)(=O)Nc2csc(-c3ccccc3)n2)ccc1Cl` [Example 148, 4-chloro-3-methyl-N-(2-phenylthiazol-4-yl)benzenesulfonamide], the AC50 was > 100 µM.
`Cc1cc(S(=O)(=O)N[C@@H]2CCCN(c3ccccc3)C2)c(C)cc1Cl` [Example 149, (R)-4-chloro-2,5-dimethyl-N-(1-phenylpiperidin-3-yl)benzenesulfonamide] was tested, and the AC50 was > 100 µM.
With `Cc1cc(S(=O)(=O)N[C@@H]2CCCN(C(=O)c3ccccc3)C2)c(C)cc1Cl` [Example 150, (R)-N-(1-benzoylpiperidin-3-yl)-4-chloro-2,5-dimethylbenzenesulfonamide] the AC50 was > 100 µM.
In the case of `O=S(=O)(Nc1csc(-c2ccccc2)n1)c1cccc(C(F)(F)F)c1` [Example 151, N-(2-phenylthiazol-4-yl)-3-(trifluoromethyl)benzenesulfonamide], the AC50 is reported as > 100 µM.
In the case of `O=S(=O)(Nc1csc(-c2ccccc2)n1)c1ccc2c(c1)CCO2` [Example 152, N-(2-phenylthiazol-4-yl)-2,3-dihydrobenzofuran-5-sulfonamide], the AC50 is reported as > 100 µM.
`Cc1cc(S(=O)(=O)N[C@@H]2CCCN(C(=O)N3CCCC3)C2)c(C)cc1Cl` [Example 153, (R)-4-chloro-2,5-dimethyl-N-(1-(pyrrolidine-1-carbonyl)piperidin-3-yl)benzenesulfonamide] was tested, and the AC50 was > 100 µM.
With `Cc1cc(S(=O)(=O)Nc2ccc3c(c2)CC(=O)N3)c(C)cc1Cl` [Example 185, 4-chloro-2,5-dimethyl-N-(2-oxoindolin-5-yl)benzenesulfonamide] the AC50 was 55 µM.
Work on “(R)-2,5-dimethyl-N-(3-(3-methylmorpholine-4-carbonyl)phenyl)benzenesulfonamide [Example 1]” yielded an AC50 of 44 µM.
